Test results taken from patent US8802597B2, “Herbicidal pyrimidines” (E I du Pont de Nemours and Company, priority 2003, dated 2014).

Key:
Format in all cases: in vivo
[1] = tested on: wheat (TRZAW; Triticum aestivum); test: Test K postemergence; settings: 15 days
Method: Seeds of plant species selected from sulfonylurea herbicide-susceptible (SU-susceptible) and sulfonylurea herbicide-resistant (SU-resistant) catchweed bedstraw (GALAP; Galium aparine) and wheat (TRZAW; Triticum aestivum) were treated with postemergence applications of test chemicals formulated in a non-phytotoxic solvent mixture which included a surfactant. Plants were treated at the 2-3 leaf stage and 2 whorl stage for wheat and catchweed bedstraw, respectively. Treated plants and controls were maintained in a controlled growth environment for 15 days after which time all species were compared to controls and visually evaluated. Plant response ratings, summarized in Table K, are based on a scale of 0 to 100 where 0 is no effect and 100 is complete control. A dash (-) response means no test result.

[2] = tested on: Canada thistle (Cirsium arvense); test: Test L field study, Compound 1 and nicosulfuron; settings: Compound 1 125 g a.i./ha, approximately 56 days after treatment
From the text: (§1) This field study included treatments that consisted of Compound 1 and nicosulfuron alone and in combination on Canada thistle (Cirsium arvense) and daisy fleabane (Erigeron spp.). The plants ranged from 20 to 30 cm in height at the time of application during the month of May in the vicinity of Newark, Del. Compound 1 was formulated as a wettable powder containing 25% active ingredient by weight. Nicosulfuron was in the form of Accent® Herbicide, a water-dispersible granule formulation containing 75% active ingredient by weight. The formulations were dispersed in water in the sprayer tank before treatment. The treatments were made using a backpack sprayer calibrated to deliver 24 gallons per acre (224 L per hectare) to a 10 ft×30 ft (3 m×9 m) plot. Each treatment was replicated two times. The effects on the plants approximately 56 days after treatment were visually compared to untreated controls. Plant response ratings were calculated as the means of the two replicates, based on a scale of 0 to 100 where 0 is no effect and 100 is complete control. Colby's Equation was used to determine the herbicidal effects expected from the mixture.

[3] = tested on: daisy fleabane (Erigeron spp.); test: Test L field study, Compound 1 and nicosulfuron; settings: Compound 1 125 g a.i./ha, approximately 56 days after treatment
From the text: as §1

[4] = tested on: corn (ZEAMD, Zea mays L. cv. ‘Pioneer 33G26’); test: Test H mixtures of compound 1 with diflufenzopyr; settings: foliage spray
From the text: (§2) This test evaluated the effect of mixtures of compound 1 with diflufenzopyr on several plant species. Seeds of test plants consisting of large crabgrass (DIGSA, Digitaria sanguinalis (L.) Scop.), lambsquarters (CHEAL, Chenopodium album L.), redroot pigweed (AMARE, Amaranthus retroflexus L.), cocklebur (XANST, Xanthium strumarium L.), barnyardgrass (ECHCG; Echinochloa crus-galli (L.) Beauv.), corn (ZEAMD, Zea mays L. cv. ‘Pioneer 33G26’), scarlet (red) morningglory (IPOCO, Ipomoea coccinea L.), giant foxtail (SETFA, Setaria faberi Herrm.) and velvetleaf (ABUTH, Abutilon theophrasti Medik.) were planted in pots containing Redi-Earth® planting medium (Scotts Company, 14111 Scottslawn Road, Marysville, Ohio 43041) comprising spaghnum peat moss, vermiculite, wetting agent and starter nutrients. Seeds of small-seeded species were planted about 1 cm deep; larger seeds were planted about 2.5 cm deep. Plants were grown in a greenhouse using supplemental lighting to maintain a photoperiod of about 14 hours; daytime and nighttime temperatures were about 25-30° C. and 22-25° C., respectively. Balanced fertilizer was applied through the watering system. The plants were grown for 7 to 11 days so that at time of treatment the plants ranged in height from 2 to 18 cm (1- to 4-leaf stage). Treatments consisted of Compound 1 and diflufenzopyr alone and in combination, suspended or dissolved in an aqueous solvent comprising glycerin and Tween nonionic surfactant and applied as a foliage spray using a volume of 541 L/ha. Each treatment was replicated four times. […] Treated plants and controls were maintained in the greenhouse and watered as needed with care to not wet the foliage for the first 24 hours after treatment. The effects on the plants approximately 3 weeks after treatment were visually compared to untreated controls. Plant response ratings were calculated as the means of the four replicates, based on a scale of 0 to 100 where 0 is no effect and 100 is complete control. Colby's Equation was used to determine the herbicidal effects expected from the mixtures. Colby's Equation (Colby, S. R. “Calculating Synergistic and Antagonistic Responses of Herbicide Combinations,” Weeds, 15(1), pp 20-22 (1967)) calculates the expected additive effect of herbicidal mixtures, and for two active ingredients is of the form: Pa+b=Pa+Pb−(PaPb/100) wherein Pa+b is the percentage effect of the mixture expected from additive contribution of the individual components, • Pa is the observed percentage effect of the first active ingredient at the same use rate as in the mixture, and • Pb is the observed percentage effect of the second active ingredient at the same use rate as in the mixture.

[5] = tested on: cocklebur (XANST, Xanthium strumarium L.); test: Test H mixtures of compound 1 with diflufenzopyr; settings: foliage spray
From the text: as §2

[6] = tested on: giant foxtail (SETFA, Setaria faberi Herrm.); test: Test H mixtures of compound 1 with diflufenzopyr; settings: foliage spray
From the text: as §2

[7] = tested on: velvetleaf (ABUTH, Abutilon theophrasti Medik.); test: Test H mixtures of compound 1 with diflufenzopyr; settings: foliage spray
From the text: as §2

[8] = tested on: lambsquarters (CHEAL, Chenopodium album L.); test: Test H mixtures of compound 1 with diflufenzopyr; settings: foliage spray
From the text: as §2

[9] = tested on: scarlet (red) morningglory (IPOCO, Ipomoea coccinea L.); test: Test H mixtures of compound 1 with diflufenzopyr; settings: foliage spray
From the text: as §2

[10] = tested on: barnyardgrass (ECHCG; Echinochloa crus-galli (L.) Beauv.); test: Test H mixtures of compound 1 with diflufenzopyr; settings: foliage spray
From the text: as §2

[11] = tested on: redroot pigweed (AMARE, Amaranthus retroflexus L.); test: Test H mixtures of compound 1 with diflufenzopyr; settings: foliage spray
From the text: as §2

[12] = tested on: large crabgrass (DIGSA, Digitaria sanguinalis (L.) Scop.); test: Test H mixtures of compound 1 with diflufenzopyr; settings: foliage spray
From the text: as §2

CCOC(=O)c1nc(C2CC2)nc(N)c1Br [Compound 1, ethyl 6-amino-5-bromo-2-cyclopropyl-4-pyrimidinecarboxylate]
Plant response rating (0 to 100 scale) ([1]; 4 g a.i./ha): 0
Plant response rating (0 to 100 scale) ([1]; 8 g a.i./ha): 0
Plant response rating (0 to 100 scale) ([1]; 16 g a.i./ha): 0
Plant response rating (0 to 100 scale) ([1]; 31 g a.i./ha): 25
Plant response rating (0 to 100 scale) ([1]; 62 g a.i./ha): 30
Plant response rating (0 to 100 scale) ([1]; 125 g a.i./ha): 38
Obsd. observed effect (0 to 100 scale) [2]: 73
Obsd. observed effect (0 to 100 scale) [3]: 53
Obsd. observed effect (0 to 100 scale) ([4]; Cmpd 1 31 g a.i./ha): 2
Obsd. observed effect (0 to 100 scale) ([4]; Cmpd 1 62 g a.i./ha): 5
Obsd. observed effect (0 to 100 scale) ([4]; Cmpd 1 125 g a.i./ha): 22
Obsd. observed effect (0 to 100 scale) ([5]; Cmpd 1 31 g a.i./ha): 87
Obsd. observed effect (0 to 100 scale) ([5]; Cmpd 1 62 g a.i./ha): 98
Obsd. observed effect (0 to 100 scale) ([5]; Cmpd 1 125 g a.i./ha): 97
Obsd. observed effect (0 to 100 scale) ([6]; Cmpd 1 31 g a.i./ha): 2
Obsd. observed effect (0 to 100 scale) ([6]; Cmpd 1 62 g a.i./ha): 4
Obsd. observed effect (0 to 100 scale) ([6]; Cmpd 1 125 g a.i./ha): 65
Obsd. observed effect (0 to 100 scale) ([7]; Cmpd 1 31 g a.i./ha): 14
Obsd. observed effect (0 to 100 scale) ([7]; Cmpd 1 62 g a.i./ha): 26
Obsd. observed effect (0 to 100 scale) ([7]; Cmpd 1 125 g a.i./ha): 93
Obsd. observed effect (0 to 100 scale) ([8]; Cmpd 1 31 g a.i./ha): 98
Obsd. observed effect (0 to 100 scale) ([8]; Cmpd 1 62 g a.i./ha): 100
Obsd. observed effect (0 to 100 scale) ([8]; Cmpd 1 125 g a.i./ha): 100
Obsd. observed effect (0 to 100 scale) ([9]; Cmpd 1 31 g a.i./ha): 92
Obsd. observed effect (0 to 100 scale) ([9]; Cmpd 1 62 g a.i./ha): 97
Obsd. observed effect (0 to 100 scale) ([9]; Cmpd 1 125 g a.i./ha): 100
Obsd. observed effect (0 to 100 scale) ([10]; Cmpd 1 31 g a.i./ha): 25
Obsd. observed effect (0 to 100 scale) ([10]; Cmpd 1 62 g a.i./ha): 42
Obsd. observed effect (0 to 100 scale) ([10]; Cmpd 1 125 g a.i./ha): 90
Obsd. observed effect (0 to 100 scale) ([11]; Cmpd 1 31 g a.i./ha): 91
Obsd. observed effect (0 to 100 scale) ([11]; Cmpd 1 62 g a.i./ha): 97
Obsd. observed effect (0 to 100 scale) ([11]; Cmpd 1 125 g a.i./ha): 100
Obsd. observed effect (0 to 100 scale) ([12]; Cmpd 1 31 g a.i./ha): 7
Obsd. observed effect (0 to 100 scale) ([12]; Cmpd 1 62 g a.i./ha): 37
Obsd. observed effect (0 to 100 scale) ([12]; Cmpd 1 125 g a.i./ha): 81

COC(=O)c1nc(C2CC2)nc(N)c1Cl [Compound 9, methyl 6-amino-5-chloro-2-cyclopropyl-4-pyrimidinecarboxylate]
Plant response rating (0 to 100 scale) ([1]; 4 g a.i./ha): 0
Plant response rating (0 to 100 scale) ([1]; 8 g a.i./ha): 20
Plant response rating (0 to 100 scale) ([1]; 16 g a.i./ha): 25
Plant response rating (0 to 100 scale) ([1]; 31 g a.i./ha): 38
Plant response rating (0 to 100 scale) ([1]; 62 g a.i./ha): 38
Plant response rating (0 to 100 scale) ([1]; 125 g a.i./ha): 40
